Reference: patent publication EP4803087A1, “METHOD FOR PRODUCING LIPOSOME COMPOSITION, AND LIPOSOME COMPOSITION” (FUJIFILM Corporation, priority 2023, dated 2025)
Structures can show the parent of a compound that is named as a salt.

Assays:
[1] = Measurement of saturated solubility of gemcitabine hydrochloride (HPLC, 272 nm); format: physicochemical; details: 55 °C, aqueous buffer, thermodynamic from solid, phosphate buffer and water
Method: 0.95 g of disodium hydrogen phosphate dihydrate, 0.15 g of sodium dihydrogen phosphate dihydrate, and 51.1 g of water were put into a 100 mL plastic container and dissolved to produce a buffer containing no sodium chloride.
3.4 g of gemcitabine hydrochloride was put into 5.8 g of this buffer and 8.1 g of water, and the mixture was stirred at 55°C for 2 hours. 5 mL of this supernatant was collected, and the filtrate obtained by filtration was used as a sample solution.
0.95 g of disodium hydrogen phosphate dihydrate, 0.15 g of sodium dihydrogen phosphate dihydrate, 5.4 g of sodium chloride, and 67.7 g of water were put into a 100 mL plastic container and dissolved to produce a buffer containing sodium chloride.
3.4 g of gemcitabine hydrochloride was put into 7.4 g of this buffer and 8.1 g of water, and the mixture was stirred at 55°C for 2 hours. 5 mL of this supernatant was collected, and the filtrate obtained by filtration was used as a sample solution.
This sample solution was quantified by HPLC at a detection wavelength of 272 nm, and the saturated solubility of 90 mg/mL in the presence of sodium chloride was obtained.

[2] = Dissolution of gemcitabine hydrochloride in the loading tank at production scale (visual confirmation); format: physicochemical; design: time after which complete dissolution could not be confirmed: dose or concentration left out as unconfirmed; details: jacket 56°C
Method: In order to prevent the powder of gemcitabine hydrochloride having high pharmacological activity from being exposed to the operator, the following work was performed in an isolator that could completely isolate the work from the outside. […] In this case, the extension tube was closed by a pinch valve. 1,452 g of water for injection at room temperature was put into the plastic bag to wash the burette, and gemcitabine hydrochloride was dispersed. A tube extended from a sealed tank (hereinafter, a loading tank) made of SUS316L with a temperature control jacket installed outside the isolator and the plastic bag was connected, and the gemcitabine hydrochloride aqueous dispersion liquid was put into the loading tank. A solution consisting of 17.0 g of disodium hydrogen phosphate dihydrate, 2.7 g of sodium dihydrogen phosphate dihydrate, and 1,106.6 g of water for injection was put into the loading tank from the plastic bag to wash out the gemcitabine hydrochloride remaining in the plastic bag, the extension tube, and the like. By cutting the extension tube while pinching and crimping the extension tube, the gemcitabine hydrochloride of the highly pharmaceutically active substance could be safely put into the loading tank without scattering from the isolator or the loading tank. […]

solubility at 2 h ([1]; in the absence of sodium chloride, stirred at 55°C for 2 hours (imitating Example 1)): 156 mg/mL
solubility at 2 h ([1]; in the presence of sodium chloride, stirred at 55°C for 2 hours (imitating Comparative Example 1)): 90 mg/mL
time after which complete dissolution could not be confirmed ([2]; Comparative Example 1: sodium chloride present, 200 rpm, downward flow, sodium hydroxide added): > 1 h
time after the temperature rise until gemcitabine hydrochloride was completely dissolved ([2]; Example 1: no sodium chloride, 305 g scale, liquid 54°C, 400 rpm, upward flow): about 15 minutes
Structure (SMILES): Nc1ccn([C@@H]2O[C@H](CO)[C@@H](O)C2(F)F)c(=O)n1 [gemcitabine hydrochloride, Gemcitabine hydrochloride]
